This assay relates to DU145 (prostate cancer) and MDA.MB213 (Triple Negative breast cancer) cells. The assay is described as follows: MTT cell growth inhibition assay on human tumor cell lines. The format is cell-based. The following applies: 48 hours exposition; for IC50: read-out: DL50 (lethal dose 50, dose at which there is 50% of cell growth inhibition). An excerpt:
FIG. 1 the evaluation of the inhibitory activity of CAM2 (a), CAM3 (b) and CAM4 (c) on the cell growth of DU145 cells in presence of different concentrations, determined by MTT assay. The cell viability was expressed as percentage of proliferated cells with respect to the cells treated with the different compounds and the same cells used as control and
FIG. 2 the evaluation of the inhibitory activity of CAM2 (a), CAM3 (b) and CAM4 (c) on the cell growth of MDA.MB231 cells in presence of different concentrations, determined by MTT assay. The cell viability was expressed as percentage of proliferated cells with respect to the cells treated with the different compounds and the same cells used as control.
MDA.MB213—Human cell line of breast cancer acquired by ATCC (American Tissue Cell Colture—ATCC® HTB-26™), triple negative for ER receptor
DU145—Human cell line of prostate cancer acquired by ATCC (American Tissue Cell Colture—ATCC® HTB-81™)
MTT Cell Proliferation Assay Kit—Purchased by TREVIGEN—Catalog #4890-025-K
The compound was dissolved in a solution of DMSO concentrated at 100%, therefrom the dilutions programmed according to the scheme shown in figure A and B are obtained and in 96-multiwell plates 2×10^4 cells are deposited (plated).
After 24 hours the compounds under study in contact with the cells at the pre-established concentrations are used, in order to determine the lethal dose 50, that is the dose thereat there is 50% of cell growth inhibition.
After 48 hours of exposition to our compound, the growth inhibition effect is determined by means of a colorimetric assay.
The MTT assay is a measurement of sensitivity of cell proliferation based upon the decrease in the salt of tetrazolium, 3, [4,5-dimethyithiazol-2-]-2,5-diphenyl-bromide-tetrazolium (MTT).
Changes in the cell proliferative activity caused by our compounds can be quantified with MTT. MTT is reduced to an insoluble colouring agent, by the mitochondrial enzymes associated to the metabolic activity. MTT reduction is mainly due to the glycolytic activity inside the cell associated to the presence of NADH and NADPH.
The compound was dissolved in a solution of DMSO concentrated at 100%, therefrom the dilutions programmed according to the scheme shown in figure A and B are obtained, and in 96-multiwell plates 2×10^4 cells are deposited (plated).
After 24 hours the compounds under study in contact with the cells at pre-established concentrations are used, in order to determine the lethal dose 50, that is the dose thereat there is 50% of cell growth inhibition.
The MTT assay is a measurement of cell proliferation sensitivity based upon the reduction in the salt of tetrazolium, 3, [4,5-dimethylthiazol-2-]-2,5-diphenyl bromide-tetrazolium (MTT). Changes in the cell proliferative activity caused by our compounds can be quantified with MTT. MTT is reduced to an insoluble colouring agent, by the mitochondrial enzymes associated to the metabolic activity. MTT reduction is mainly due to the glycolytic activity inside the cell associated to the presence of NADH and NADPH.
The compound was dissolved in a solution of DMSO concentrated at 100%, therefrom the dilutions programmed according to the scheme shown in A e B are obtained, in 96-multiwell plates 2×10^4 cells are deposited (plated).
MTT assay is a measurement of the cell proliferation sensitivity based upon the reduction in the salt of tetrazolium, 3, [4,5-dimethylthiazol-2-]-2,5-diphenyl bromide-tetrazolium (MTT). Changes in the cell proliferative activity caused by our compounds can be quantified with MTT. MTT is reduced to an insoluble colouring agent, by the mitochondrial enzymes associated to the metabolic activity. MTT reduction is mainly due to the glycolytic activity inside the cell associated to the presence of NADH and NADPH.

The mark [1] stands for this setting: cell line not specified (DU145 / MDA.MB213).
Where [2] appears, read: 5 μM, cell line not specified (DU145 / MDA.MB213).

This note sets out measurements from patent US10675300B2, “Group 3 metal compounds and use thereof in the treatment of solid tumors” (UNIVERSITÀ DEGLI STUDI DI SALERNO, priority 2016, dated 2020).

On to [Cp-CH2—C6H5—OCH3)]ScCl2 [CAM3], for which the growth inhibition runs as follows: (10 μM (higher concentrations), cell line not specified) 95%; (lower concentrations (not specified), cell line not specified) 40%. Further, the “DL50 (lethal dose 50, dose at which there is 50% of cell growth inhibition)” value under setting [1] is reported as 5/10.

For [Cp-CH2—C6H5—OCH3]2ScCl [CAM4], the growth inhibition under setting [2] stood at 14% and the growth inhibition (40 μM (higher concentrations), cell line not specified) turned out to be 88%. Besides, the IC50 under setting [1] amounted to 20 µM.

Regarding [Cp-CH2—C6H5—OCH3]2YCl [CAM2], the growth inhibition amounted to 58% under setting [2] and 95% (20 μM, cell line not specified (DU145 / MDA.MB213)). For the same substance, the IC50 under setting [1] is less than 5 µM.
